Test results: US8501737B2, “Piperazinyl-, piperidinyl- and morpholinyl-derivatives as novel inhibitors of histone deacetylase” (Janssen Pharmaceutica N.V., priority 2002, dated 2013)
Converted amounts (≈) assume the structure as drawn. Read-outs that look alike come from different tables or passages of the source.

How the values were obtained:
[1] = Kinetic solubility in aqueous media (nephelometer turbidity); format: physicochemical; settings: aqueous buffer, kinetic from dmso stock; phosphate citrate buffer pH 7.4, dilution from 5 mM DMSO stock; read-out: Solubility Score
Method: Kinetic solubility in aqueous media measures the ability of a compound to stay in aqueous solution upon dilution (see example C.3).
DMSO-stock solutions are diluted with a single aqueous buffer solvent in 3 consecutive steps. For every dilution turbidity is measured with a nephelometer.
In the first dilution step, 10 μl of a concentrated stock-solution of the active compound, solubilized in DMSO (5 mM), was added to 100 μl phosphate citrate buffer pH 7.4 and mixed. In the second dilution step, an aliquot (20 μl) of the first dilution step was further dispensed in 100 μl phosphate citrate buffer pH 7.4 and mixed. Finally, in the third dilution step, a sample (20 μl) of the second dilution step was further diluted in 100 μl phosphate citrate buffer pH 7.4 and mixed. All dilutions were performed in 96-well plates. Immediately after the last dilution step the turbidity of the three consecutive dilution steps were measured with a nephelometer. Dilution was done in triplicate for each compound to exclude occasional errors. Based on the turbidity measurements a ranking is performed into 3 classes. Compounds with high solubility obtained a score of 3 and for this compounds the first dilution is clear. Compounds with medium solubility obtained a score of 2. For these compounds the first dilution is unclear and the second dilution is clear. […] The solubility of 11 compounds was measured.

[2] = tested on: human A2780 ovarian carcinoma cells; assay: Antiproliferative activity on A2780 cells (MTT-based assay); format: cell-based; settings: four days of incubation; for IC50: Homo sapiens, A2780, 96 h, read-out: Cellular activity pIC50 (converted)
Method: Cellular activity of the compounds of formula (I) was determined on A2780 tumour cells using a […] assay for cell toxicity or survival (Mosmann Tim, Journal of Immunological Methods 65: 55-63, 1983)(see example C.2).
All compounds tested were dissolved in DMSO and further dilutions were made in culture medium. Final DMSO concentrations never exceeded 0.1% (v/v) in cell proliferation assays, Controls contained A2780 cells and DMSO without compound and blanks contained DMSO but no cells. MTT was dissolved at 5 mg/ml in PBS. A glycine buffer comprised of 0.1 M glycine and 0.1 M NaCl buffered to pH 10.5 with NaOH (1 N) was prepared (all reagents were from Merck).
The human A2780 ovarian carcinoma cells (a kind gift from Dr. T. C. Hamilton [Fox Chase Cancer Centre, Pennsylvania, USA]) were cultured in RPMI 1640 medium supplemented with 2 mM L-glutamine, 50 μg/ml gentamicin and 10% fetal calf serum. Cells were routinely kept as monolayer cultures at 37° C. in a humidified 5% CO2 atmosphere. Cells were passaged once a week using a trypsin/EDTA solution at a split ratio of 1:40. All media and supplements were obtained from Life Technologies. Cells were free of mycoplasma contamination as determined using the Gen-Probe Mycoplasma Tissue Culture kit (supplier: BioMérieux).
Cells were seeded in NUNC™ 96-well culture plates (Supplier: Life Technologies) and allowed to adhere to the plastic overnight. Densities used for plating were 1500 cells per well in a total volume of 200 μl medium. After cell adhesion to the plates, medium was changed and drugs and/or solvents were added to a final volume of 200 μl. Following four days of incubation, medium was replaced by 200 μl fresh medium and cell density and viability was assessed using an MTT-based assay. To each well, 25 μl MTT solution was added and the cells were further incubated for 2 hours at 37° C. The medium was then carefully aspirated and the blue MTT-formazan product was solubilized by addition of 25 μl glycine buffer followed by 100 μl of DMSO. […] Within an experiment, the results for each experimental condition are the mean of 3 replicate wells. For initial screening purposes, compounds were tested at a single fixed concentration of 10^−6 M. For active compounds, the experiments were repeated to establish full concentration-response curves. For each experiment, controls (containing no drug) and a blank incubation (containing no cells or drugs) were run in parallel. The blank value was subtracted from all control and sample values. For each sample, the mean value for cell growth (in absorbance units) was expressed as a percentage of the mean value for cell growth of the control. […] Herein the effects of test compounds are expressed as pIC50 (the negative log value of the IC50-value).

[3] = target: histone deacetylase (HeLa nuclear extracts); assay: In vitro assay for inhibition of histone deacetylase (HeLa nuclear extracts, radiolabeled histone H4 peptide substrate); format: biochemical; settings: HeLa nuclear extracts 60 μg/ml, 30 min, pH 7.4
Method: The in vitro assay for inhibition of histone deacetylase (see example C.1) measures the inhibition of HDAC enzymatic activity obtained with the compounds of formula (I).
HeLa nuclear extracts (supplier: Biomol) were incubated at 60 μg/ml with 2×10^−8 M of radiolabeled peptide substrate. As a substrate for measuring HDAC activity a synthetic peptide, i.e. the amino acids 14-21 of histone H4, was used. The substrate is biotinylated at the NH2-terminal part with a 6-aminohexanoic acid spacer, and is protected at the COOH-terminal part by an amide group and specifically [^3H]-acetylated at lysine 16. The substrate, biotin-(6-aminohexanoic)Gly-Ala-([^3H]-acetyl-Lys-Arg-His-Arg-Lys-Val-NH2), was added in a buffer containing 25 mM Hepes, 1 M sucrose, 0.11 mg/ml BSA and 0.01% Triton X-100 at pH 7.4. After 30 min the deacetylation reaction was terminated by the addition of HCl and acetic acid. (final concentration 0.035 mM and 3.8 mM respectively). After stopping the reaction, the free ^3H-acetate was extracted with ethylacetate. After mixing and centrifugation, the radioactivity in an aliquot of the upper (organic) phase was counted in a β-counter.
For each experiment, controls (containing HeLa nuclear extract and DMSO without compound), a blank incubation (containing DMSO but no HeLa nuclear extract or compound) and samples (containing compound dissolved in DMSO and HeLa nuclear extract) were run in parallel. In first instance, compounds were tested at a concentration of 10^−5M. […] In each test the blank value was subtracted from both the control and the sample values. The control sample represented 100% of substrate deactylation. For each sample the radioactivity was expressed as a percentage of the mean value of the controls. […] Herein the effects of test compounds are expressed as pIC50 (the negative log value of the IC50-value).

[4] = not given; remark: listed apart in the source

Row | solubility [1] [µM] | IC50 [2] [nM] | Enzyme activity pIC50 [3] | melting point [°C] | Cellular activity pIC50 [2] | % metabolism ([4]; human, 15 min, 5 μM) [%] | Compound | % metabolism ([4]; after 15 min incubation with microsomes (1 mg/ml), compound 5 μM, 37 degrees Celsius) [%]
1 | > 454 | > 10000 | 7.553 | 176 | – | – | O=C(NO)c1cnc(N2CC[C@H](O)[C@H](CNS(=O)(=O)c3ccc4ccccc4c3)C2)nc1 [Compound 11] | –
2 | > 454 | 36.5 | 7.487 | 290 | – | – | O=C(NO)c1cnc(N2CCOC(CNC(=O)c3ccc(-c4ccccc4)cc3)C2)nc1 (centres unmarked) [Compound 8] | –
3 | > 454 | 413 | 7.421 | 179 | – | – | O=C(NO)c1cnc(N2CCOC(CNS(=O)(=O)c3ccc4ccccc4c3)C2)nc1 (centres unmarked) [Compound 6] | –
4 | > 454 | 1080 | 7.65 | 210 | – | – | O=C(NO)c1cnc(N2CCCC(CNS(=O)(=O)c3ccc4ccccc4c3)C2)nc1 (centres unmarked) [Compound 10] | –
5 | 75.8 to 454 (≈ 35.6 to 213 µg/mL) | 977 | 7.528 | – | – | – | O=C(NO)c1cnc(N2CCO[C@H](CNS(=O)(=O)c3ccc(-c4ccccc4)cc3)C2)nc1 [Compound 12] | –
6 | > 454 | > 10000 | 7.609 | 246 | – | – | O=C(NO)c1cnc(N2CCOC(CNC(=O)c3ccc4ccccc4c3)C2)nc1 (centres unmarked) [Compound 9] | –
7 | > 454 | 2040 | 7.323 | 157 | – | – | O=C(NO)c1ccc(N2CCOC(CNS(=O)(=O)c3ccc4ccccc4c3)C2)nc1 (centres unmarked) [Compound 7] | –
8 | – | – | – | – | – | – | CCCO [propanol] | 25
9 | – | – | 7.723 | 164 | 6.232 | – | O=C(NO)c1cnc(N2CCO[C@H](CNS(=O)(=O)c3ccc(-c4ccccc4)cc3)C2)nc1 [Compound 1] | –
10 | – | 2050 | 7.549 | 210 | – | – | O=C(NO)c1ccc(N2CCOC(CNS(=O)(=O)c3ccc(-c4ccccc4)cc3)C2)nc1 (centres unmarked) [Compound 5] | –
11 | – | – | – | – | – | 45 | COc1cc(N)c(Cl)cc1C(=O)NC1CCN(CCCOc2ccc(F)cc2)CC1OC (centres unmarked) [Cisapride] | –
12 | < 75.8 | 565 | 8.097 | 163 | – | – | O=C(NO)c1cnc(N2CCOC(CNS(=O)(=O)c3ccc(-c4ccccc4)cc3)C2)nc1 (centres unmarked) [Compound 4] | –
13 | < 75.8 | 2400 | 7.647 | 135 | – | – | O=C(NO)c1cnc(N2CCN(Cc3ccccc3)C(CNS(=O)(=O)c3ccc4ccccc4c3)C2)nc1 (centres unmarked) [Compound 3] | –
14 | – | 243 | – | – | – | – | O=C(NO)c1cnc(N2CCCC(NS(=O)(=O)c3ccc4ccccc4c3)C2)nc1 (centres unmarked) [Compound 14] | –
15 | – | 1690 | 7.361 | – | – | – | CN1CCN(c2ncc(C(=O)NO)cn2)CC1CNS(=O)(=O)c1ccc2ccccc2c1 (centres unmarked) [Compound 13] | –
16 | < 75.8 | 2040 | 8.059 | 243 | – | – | O=C(NO)c1cnc(N2CCNC(CNS(=O)(=O)c3ccc4ccccc4c3)C2)nc1 (centres unmarked) [Compound 2] | –
